Experimental data reported in US20060069132A1, “Azolecarboxamide herbicides” (priority 2004, published 2006).

What was measured:
morningglory [1] = test: Test A pre-/postemergence herbicide test; format: in vivo, Ipomoea spp.
Procedure, shortened: (§1)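 Sandy loam soil given preemergence directed spray; plants at 2 to 10 cm, one- to two-leaf stage, sprayed to runoff postemergence, compounds in non-phytotoxic solvent with surfactant. Injury rated visually versus untreated controls after about ten greenhouse days, 0 (no effect) to 100 (complete control); dash means not tested.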

redroot pigweed = test: Test A pre-/postemergence herbicide test; format: in vivo, Amaranthus retroflexus
Procedure, shortened: as §1

Surinam grass = test: Test C pre-/postemergence herbicide test; format: in vivo, Urochloa decumbens; conditions: preemergence
Procedure, shortened: (§2)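 Preemergence: seeds planted and treated with compound in non-phytotoxic solvent with surfactant; postemergence: plants at 2 to 18 cm (1- to 4-leaf stage) sprayed likewise. Kept in greenhouse 12 to 14 days, then visually rated against controls, 0 (no effect) to 100 (complete control).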

cocklebur = test: Test C pre-/postemergence herbicide test; format: in vivo, Xanthium strumarium; conditions: for Plant response rating, Cocklebur: preemergence; for Cocklebur plant response rating: Preemergence, 500 g ai/ha, scale 0 to 100, 0 no effect, 100 complete control
Procedure, shortened: as §2

corn = test: Test C pre-/postemergence herbicide test; format: in vivo, Zea mays; conditions: preemergence
Procedure, shortened: as §2

johnsongrass = test: Test C pre-/postemergence herbicide test; format: in vivo, Sorghum halepense; conditions: preemergence
Procedure, shortened: as §2

morningglory [2] = test: Test C pre-/postemergence herbicide test; format: in vivo, Ipomoea coccinea; set-up: key to Plant response rating, Morningglory: 0 = no effect, 100 = complete control; conditions: preemergence
Procedure, shortened: as §2

eastern black nightshade = test: Test C pre-/postemergence herbicide test; format: in vivo, Solanum ptycanthum; conditions: preemergence
Procedure, shortened: as §2

pigweed = test: Test C pre-/postemergence herbicide test; format: in vivo, Amaranthus retroflexus; conditions: preemergence
Procedure, shortened: as §2

velvetleaf = test: Test C pre-/postemergence herbicide test; format: in vivo, Abutilon theophrasti; conditions: preemergence
Procedure, shortened: as §2

[3] = Postemergence, 500 g ai/ha, 0 to 100 scale, 0 no effect, 100 complete control
[4] = Postemergence, 2000 g ai/ha, 0 to 100 scale, 0 no effect, 100 complete control
[5] = Preemergence, 2000 g ai/ha, visual rating, 0 to 100 scale (0 no effect, 100 complete control)
[6] = preemergence, 500 g ai/ha, visual injury, 0 to 100 scale (0 no effect, 100 complete control)
[7] = 125 g ai/ha, scale 0 (no effect) to 100 (complete control), visual, 12 to 14 days
[8] = 500 g ai/ha, scale 0 to 100 (0 no effect, 100 complete control), visual, 12 to 14 days

Row | SMILES | Morningglory plant response rating (morningglory [1]; [3]) | Plant response rating, Morningglory (morningglory [1]; [4]) | Morningglory plant response rating (morningglory [1]; [5]) | Morningglory plant response rating (morningglory [1]; [6]) | Pigweed plant response rating (redroot pigweed; [3]) | Plant response rating, Pigweed (redroot pigweed; [4]) | Pigweed plant response rating (redroot pigweed; [5]) | Pigweed plant response rating (redroot pigweed; [6]) | Plant response rating, Surinam Grass (Surinam grass; 62 g ai/ha, scale 0 to 100) | Plant response rating, Surinam Grass (Surinam grass; 250 g ai/ha, scale 0-100) | Plant response rating, Surinam Grass (Surinam grass; [8]) | Plant response rating, Cocklebur (cocklebur; 250 g ai/ha, scale 0-100) | Cocklebur plant response rating (cocklebur) | Plant response rating, Corn (corn; 62 g ai/ha, scale 0 to 100) | Plant response rating, Corn (corn; [7]) | Plant response rating, Corn (corn; 250 g ai/ha, scale 0-100) | Plant response rating, Corn (corn; [8]) | Plant response rating, Johnsongrass (johnsongrass; 62 g ai/ha, scale 0 to 100) | Plant response rating, Johnsongrass (johnsongrass; [7]) | Plant response rating, Morningglory (morningglory [2]; 62 g ai/ha, scale 0 to 100) | also measured
1 | CCNC(=O)c1cccc(NC(=O)c2sc(C(C)(C)C)nc2CC)c1 [Compound 210] | 20 | 25 | 100 | 55 | 60 | 80 | 100 | 100 | 0 | 10 | 50 | 0 | 5 | 0 | 10 | 20 | 40 | 5 | 20 | 0 | Plant response rating, Surinam Grass (Surinam grass; [7]): 5; Plant response rating, Cocklebur (cocklebur; 62 g ai/ha, scale 0 to 100): 0; Plant response rating, Cocklebur (cocklebur; [7]): 0; Plant response rating, Johnsongrass (johnsongrass; 250 g ai/ha, scale 0-100): 50; Plant response rating, Johnsongrass (johnsongrass; [8]): 70; Plant response rating, Morningglory (morningglory [2]; [7]): 0; Plant response rating, Morningglory (morningglory [2]; 250 g ai/ha, scale 0-100): 5; Plant response rating, Morningglory (morningglory [2]; [8]): 10; Plant response rating, Nightshade (eastern black nightshade; 62 g ai/ha, scale 0 to 100): 80; Plant response rating, Nightshade (eastern black nightshade; [7]): 100; Plant response rating, Nightshade (eastern black nightshade; 250 g ai/ha, scale 0-100): 100; Plant response rating, Nightshade (eastern black nightshade; [8]): 100; Plant response rating, Pigweed (pigweed; 62 g ai/ha, scale 0 to 100): 100; Plant response rating, Pigweed (pigweed; [7]): 100; Plant response rating, Pigweed (pigweed; 250 g ai/ha, scale 0-100): 100; Plant response rating, Pigweed (pigweed; [8]): 100; Plant response rating, Velvetleaf (velvetleaf; 62 g ai/ha, scale 0 to 100): 0; Plant response rating, Velvetleaf (velvetleaf; [7]): 0; Plant response rating, Velvetleaf (velvetleaf; 250 g ai/ha, scale 0-100): 60; Plant response rating, Velvetleaf (velvetleaf; [8]): 80
2 | CCNC(=O)c1cccc(NC(=O)c2sc(C(C)(C)C)nc2CC)n1 [Compound 213] | 20 | 10 | 60 | 25 | 30 | 40 | 95 | 75 | 0 | 20 | 60 | 100 | 100 | 0 | 0 | 30 | 40 | 0 | 55 | 0 | Plant response rating, Surinam Grass (Surinam grass; [7]): 0; Plant response rating, Johnsongrass (johnsongrass; 250 g ai/ha, scale 0-100): 60; Plant response rating, Johnsongrass (johnsongrass; [8]): 80; Plant response rating, Morningglory (morningglory [2]; [7]): 0; Plant response rating, Morningglory (morningglory [2]; 250 g ai/ha, scale 0-100): 0; Plant response rating, Morningglory (morningglory [2]; [8]): 0; Plant response rating, Nightshade (eastern black nightshade; 62 g ai/ha, scale 0 to 100): 100; Plant response rating, Nightshade (eastern black nightshade; [7]): 100; Plant response rating, Nightshade (eastern black nightshade; 250 g ai/ha, scale 0-100): 100; Plant response rating, Nightshade (eastern black nightshade; [8]): 100; Plant response rating, Pigweed (pigweed; 62 g ai/ha, scale 0 to 100): 80; Plant response rating, Pigweed (pigweed; [7]): 100; Plant response rating, Pigweed (pigweed; 250 g ai/ha, scale 0-100): 100; Plant response rating, Pigweed (pigweed; [8]): 100; Plant response rating, Velvetleaf (velvetleaf; 62 g ai/ha, scale 0 to 100): 0; Plant response rating, Velvetleaf (velvetleaf; [7]): 0; Plant response rating, Velvetleaf (velvetleaf; 250 g ai/ha, scale 0-100): 0; Plant response rating, Velvetleaf (velvetleaf; [8]): 0
3 | CCc1nn(C(C)(C)C)cc1C(=O)Nc1cc(C(=O)N(CC)CC)ccc1F [Compound 223] | 50 | 60 | 55 | 35 | 50 | 55 | 90 | 95 | 50 | 70 | 85 | 0 | 0 | 0 | 0 | 5 | 50 | 80 | 80 | 0 | Plant response rating, Cocklebur (cocklebur; 62 g ai/ha, scale 0 to 100): 0; Plant response rating, Cocklebur (cocklebur; [7]): 0; Plant response rating, Morningglory (morningglory [2]; [7]): 0; Plant response rating, Morningglory (morningglory [2]; 250 g ai/ha, scale 0-100): 5; Plant response rating, Morningglory (morningglory [2]; [8]): 100; Plant response rating, Nightshade (eastern black nightshade; 62 g ai/ha, scale 0 to 100): 100; Plant response rating, Nightshade (eastern black nightshade; [7]): 100; Plant response rating, Nightshade (eastern black nightshade; 250 g ai/ha, scale 0-100): 100; Plant response rating, Nightshade (eastern black nightshade; [8]): 100; Plant response rating, Pigweed (pigweed; 62 g ai/ha, scale 0 to 100): 100; Plant response rating, Pigweed (pigweed; [7]): 100; Plant response rating, Pigweed (pigweed; 250 g ai/ha, scale 0-100): 100; Plant response rating, Pigweed (pigweed; [8]): 100; Plant response rating, Velvetleaf (velvetleaf; 62 g ai/ha, scale 0 to 100): 0; Plant response rating, Velvetleaf (velvetleaf; 250 g ai/ha, scale 0-100): 100; Plant response rating, Velvetleaf (velvetleaf; [8]): 100
